Holding throughout (assay type): cell-based
Test [1] relates to HT-29, SF-268, PC-3, MDA-MB-231. Kind of test: Average GI50 over the four cell lines, method (b). Particulars: for GI50: values > 30 not considered; for anticancer activity compared with Compound 1: four cell lines. On the procedure: (§1) Row H was filled wih medium only (150 μL, negative control-medium).
Test [2] deals with SF268 (CNS). Kind of test: In vitro cytotoxic activity (GI50), method (b), propidium iodide. Particulars: Homo sapiens, SF-268, 96 hrs. How it is done: as §1
Test [3] relates to PC-3 (prostate adenocarcinoma). The test is described as above. Particulars: 96 hrs. How it is done: as §1
Test [4] has as its system MDA-MB-231 (mammary gland adenocarcinoma). Described as above. Particulars: Homo sapiens, 96 hrs. How it is done: as §1
Test [5] deals with HT-29 (colorectal carcinoma). The test is described as above. The conditions noted are these: Homo sapiens, 96 hrs. How it is done:
as §1

For orientation: GI50 means the concentration at which growth is held to half of that of the control. Take `CCC(C)N1c2c(O)cccc2C(=O)N(C/C=C(\C)CC/C=C(\C)CCC=C(C)C)c2cc(O)cc(O)c21` (stereo not drawn) [Compound 77, 10-Farnesyl-4,6,8-trihydroxy-5-sec-butyl-5,10-dihydro-dibenzo[b,e][1,4]diazepin-11-one]: the GI50 in test [1] is 9.98 µM; in test [2], 3.31 µM; in test [3] it was 17.1 µM; in test [4] it was 5.62 µM; in test [5], 13.9 µM.

For `CC(C)=CCC/C(C)=C/CC/C(C)=C/CN1C(=O)c2cccc(OC(=O)c3ccccc3)c2Nc2c(OC(=O)c3ccccc3)cc(OC(=O)c3ccccc3)cc21` [Compound 105, 4,6,8-tribenzoyloxy-10-farnesyl-5,10-dihydro-dibenzo[b,e][1,4] diazepin-11-one], the GI50 was 28.2 µM in test [1]; 28.2 µM in test [2]; more than 30 µM in test [3]; more than 30 µM in test [4]; more than 30 µM in test [5].

Take `CC(C)=CCCC1(C)OC1CC/C(C)=C/CN1C(=O)c2cccc(O)c2Nc2c(O)cc(O)cc21` (stereo not drawn) [Compound 17, 10-(3,7,11-trimethyl-6,7-epoxydodeca-2,10-dienyl)-4,6,8-trihydroxy-5,10-dihydro-dibenzo[b,e][1,4]diazepin-11-one]: the GI50 in test [1] was 16 µM; in test [2], 13.4 µM; in test [3], 18.7 µM; in test [4], more than 30 µM; in test [5], more than 30 µM.

For `CCN1c2c(O)cccc2C(=O)N(CC=C(C)CCCC(C)(CCCC(C)(C)OC)OC)c2cc(O)cc(O)c21` (stereo not drawn) [Compound 87, 10-(7,11-dimethoxy-3,7,11-trimethyl-2-dodecenyl)-4,6,8-trihydroxy-5-ethyl-5,10-dihydro-dibenzo[b,e][1,4]diazepin-11-one], the “anticancer activity compared with Compound 1” value in test [1] is recorded as “better anticancer activity than Compound 1”. The GI50 in test [1] came out at 1.63 µM; in test [2], 0.91 µM; in test [3], 1.39 µM; in test [4], 2.4 µM; in test [5], 1.83 µM.

With `CCOC(=O)CN1c2c(O)cccc2C(=O)N(C/C=C(\C)CC/C=C(\C)CCC=C(C)C)c2cc(O)cc(O)c21` [Compound 101, (10-Farnesyl-4,6,8-trihydroxy-5,10-dihydrodibenzo[b,e][1,4]diazepin-11-on-5-yl)acetic acid ethyl ester], the concentration for 50% growth inhibition (GI50) was 8.47 µM in test [1]; 3.27 µM in test [2]; 8.73 µM in test [3]; 3.67 µM in test [4]; 18.2 µM in test [5].

For the molecule `CCN1c2c(O)cccc2C(=O)N(C/C=C(\C)CC/C=C(\C)CCCC(C)(C)OC)c2cc(O)cc(O)c21` [Compound 85, 10-(11-methoxy-3,7,11-trimethyl-2,6-dodecadienyl)-4,6,8-trihydroxy-5-ethyl-5,10-dihydro-dibenzo[b,e][1,4]diazepin-11-one], the “anticancer activity compared with Compound 1” value in test [1] was “better anticancer activity than Compound 1”. In addition, the 50% growth inhibitory concentration (GI50) in test [1] worked out at 1.72 µM; in test [2], 1.73 µM; in test [3], 1.08 µM; in test [4], 2.19 µM; in test [5], 1.89 µM.

Turning to `COC(C)(C)CCC/C(C)=C/CC/C(C)=C/CN1C(=O)c2cccc(O)c2Nc2c(O)cc(O)cc21` [Compound 82, 10-(11-methoxy-3,7,11-trimethyl-2,6-dodecadienyl)-4,6,8-trihydroxy-5,10-dihydro-dibenzo[b,e][1,4]diazepin-11-one], the GI50 in test [1] was 13.2 µM; in test [2] it was 4.75 µM; in test [3], 13.4 µM; in test [4], 11 µM; in test [5], 23.6 µM.

In the case of `CCCCN1c2c(O)cccc2C(=O)N(C/C=C(\C)CC/C=C(\C)CCC=C(C)C)c2cc(O)cc(O)c21` [Compound 64, 10-farnesyl-4,6,8-trihydroxy-5-n-butyl-5,10-dihydro-dibenzo[b,e][1,4]diazepin-11-one], the “anticancer activity compared with Compound 1” value in test [1] is “better anticancer activity than Compound 1”. For the same molecule, the GI50 was found to be 1.4 µM in test [1]; 0.56 µM in test [2]; 1.14 µM in test [3]; 1.39 µM in test [4]; 2.5 µM in test [5].

In the case of `CC(C)=CCC/C(C)=C/CC/C(C)=C/CN1C(=O)c2cccc(O)c2Nc2c1cc(O)c(Br)c2O` [Compound 97, 10-(farnesyl)-7-bromo-4,6,8-trihydroxy-5,10-dihydro-dibenzo[b,e][1,4]diazepin-11-one], the “anticancer activity compared with Compound 1” value in test [1] is “generally more active than Compound 1”. Moreover, the GI50 in test [1] came out at 1.82 µM; in test [2], 2.04 µM; in test [3], 1.19 µM; in test [4], 2.02 µM; in test [5], 2.02 µM.

As for `CCN1c2c(O)cccc2C(=O)N(C/C=C(\C)CC/C=C(\C)CCC=C(C)C)c2cc(O)cc(O)c21` [Compound 14, 10-farnesyl-4,6,8-trihydroxy-5-ethyl-5,10-dihydro-dibenzo[b,e][1,4]diazepin-11-one], the GI50 is 1.53 µM in test [1]; 0.76 µM in test [2]; 1.15 µM in test [3]; 2.16 µM in test [4]; 2.04 µM in test [5].

In the case of `CCCCCCN1c2c(O)cccc2C(=O)N(C/C=C(\C)CC/C=C(\C)CCC=C(C)C)c2cc(O)cc(O)c21` [Compound 67, 10-farnesyl-4,6,8-trihydroxy-5-n-hexyl-5,10-dihydro-dibenzo[b,e][1,4]diazepin-11-one], in test [1], the “anticancer activity compared with Compound 1” value is “better anticancer activity than Compound 1”. Besides, the GI50 came to 1.55 µM in test [1]; 0.53 µM in test [2]; 1.33 µM in test [3]; 1.92 µM in test [4]; 2.44 µM in test [5].

For `[2H]C([2H])([2H])N1c2c(O)cccc2C(=O)N(C/C=C(\C)CC/C=C(\C)CCC=C(C)C)c2cc(O)cc(O)c21` [Compound 98, 10-Farnesyl-4,6,8-trihydroxy-5-(trideuteriomethyl)-5,10-dihydro-dibenzo[b,e][1,4]diazepin-11-one], in test [1], the “anticancer activity compared with Compound 1” value is given as “better anticancer activity than Compound 1”. The GI50 stood at 0.54 µM in test [1]; 0.16 µM in test [2]; 0.82 µM in test [3]; 0.51 µM in test [4]; 0.69 µM in test [5].

In the case of `CC(C)=CCCC(C)(O)CCC/C(C)=C/CN1C(=O)c2cccc(O)c2Nc2c(O)cc(O)cc21` (stereo not drawn) [Compound 89, 10-(7-hydroxy-3,7,11-trimethyldodeca-2,10-dienyl)-4,6,8-trihydroxy-5,10-dihydro-dibenzo[b,e][1,4]diazepin-11-one], the GI50 in test [1] was 17.5 µM; in test [2] it was 13.7 µM; in test [3], 13.5 µM; in test [4] it was 25.3 µM; in test [5], more than 30 µM.

As for `COC(C)(C)CCCC(C)(CCC/C(C)=C/CN1C(=O)c2cccc(O)c2Nc2c(O)cc(O)cc21)OC` (stereo not drawn) [Compound 84, 10-(7,11-dimethoxy-3,7,11-trimethyl-2-dodecenyl)-4,6,8-trihydroxy-5,10-dihydro-dibenzo[b,e][1,4]diazepin-11-one], the GI50 in test [1] stood at 16.2 µM; in test [2], 3.49 µM; in test [3] it was 16.4 µM; in test [4] it was 23.5 µM; in test [5], 21.5 µM.

On to `C/C(=C\CN1C(=O)c2cccc(O)c2N(C)c2c(O)cc(O)cc21)CCCC(C)CCCC(C)C` (stereo not drawn) [Compound 100, 10-(3,7,11-trimethyl-2-dodecenyl)-4,6,8-trihydroxy-5-methyl-5,10-dihydro-dibenzo[b,e][1,4]diazepin-11-one], for which, in test [1], the “anticancer activity compared with Compound 1” value is listed as “better anticancer activity than Compound 1”. In addition, the GI50 in test [1] stood at 0.49 µM; in test [2] it was 0.23 µM; in test [3] it was 0.65 µM; in test [4], 0.37 µM; in test [5], 0.69 µM.

Regarding `CC(C)CCCC(C)CCCC(C)CCN1C(=O)c2cccc(O)c2N(C)c2c(O)cc(O)cc21` (stereo not drawn) [Compound 78, 10-(3,7,11-trimethyldodecyl)-4,6,8-trihydroxy-5-methyl-5,10-dihydro-dibenzo[b,e][1,4]diazepin-11-one], the “anticancer activity compared with Compound 1” value in test [1] is recorded as “better anticancer activity than Compound 1”. The GI50 came to 0.21 µM in test [1]; 0.07 µM in test [2]; 0.23 µM in test [3]; 0.24 µM in test [4]; 0.29 µM in test [5].

On to `COC(C)(CCC=C(C)C)CCC/C(C)=C/CN1C(=O)c2cccc(O)c2Nc2c(O)cc(O)cc21` (stereo not drawn) [Compound 83], for which the GI50 in test [1] worked out at 12.3 µM; in test [2], 9.74 µM; in test [3], 13.2 µM; in test [4], 6.71 µM; in test [5], 19.6 µM.

Take `CCCN1c2c(O)cccc2C(=O)N(C/C=C(\C)CC/C=C(\C)CCC=C(C)C)c2cc(O)cc(O)c21` [Compound 63, 10-farnesyl-4,6,8-trihydroxy-5-n-propyl-5,10-dihydro-dibenzo[b,e][1,4]diazepin-11-one]: in test [1], the “anticancer activity compared with Compound 1” value is “better anticancer activity than Compound 1”. For the same molecule, the 50% growth inhibitory concentration (GI50) was 1.74 µM in test [1]; 0.89 µM in test [2]; 1.25 µM in test [3]; 2.27 µM in test [4]; 2.57 µM in test [5].

With `CC(=O)NC(C)(CCC=C(C)C)CCC/C(C)=C/CN1C(=O)c2cccc(O)c2Nc2c(O)cc(O)cc21` (stereo not drawn) [Compound 92, 10-(7-acetamido-3,7,11-trimethyldodeca-2,10-dienyl)-4,6,8-trihydroxy-5,10-dihydro-dibenzo[b,e][1,4]diazepin-11-one], the GI50 in test [1] was 13.7 µM; in test [2] it was 13.5 µM; in test [3], 16.6 µM; in test [4] it was 11.1 µM; in test [5] it was more than 30 µM.

As to `C/C(=C\CN1C(=O)c2cccc(O)c2Nc2c(O)cc(O)cc21)CC/C=C(\C)CCC1OC1(C)C` (stereo not drawn) [Compound 18], the GI50 in test [2] is 7.45 µM; in test [3], more than 30 µM; in test [4], more than 30 µM; in test [5], more than 30 µM.

For the origin of these results see patent US20060079512A1, “Dibenzodiazepinone analogues, processes for their production and their use as pharmaceuticals” (Ecopia BioSciences, Inc., priority 2003, published 2006).
